From publication PMC11249017 (Journal of Medicinal Chemistry, 2024)
pIC50: −log10 of the molar value. “Also recorded” adds a separate entry of the source. Marks after values point to notes of the source that are not given here.

Assays:
human G2A [1] = target: human G2A (Homo sapiens, UniProt Q9UNW8); conditions: compared with T-10418; 15 min after addition
Target sequence in this assay (P32121 whole entry partner, one chain of several): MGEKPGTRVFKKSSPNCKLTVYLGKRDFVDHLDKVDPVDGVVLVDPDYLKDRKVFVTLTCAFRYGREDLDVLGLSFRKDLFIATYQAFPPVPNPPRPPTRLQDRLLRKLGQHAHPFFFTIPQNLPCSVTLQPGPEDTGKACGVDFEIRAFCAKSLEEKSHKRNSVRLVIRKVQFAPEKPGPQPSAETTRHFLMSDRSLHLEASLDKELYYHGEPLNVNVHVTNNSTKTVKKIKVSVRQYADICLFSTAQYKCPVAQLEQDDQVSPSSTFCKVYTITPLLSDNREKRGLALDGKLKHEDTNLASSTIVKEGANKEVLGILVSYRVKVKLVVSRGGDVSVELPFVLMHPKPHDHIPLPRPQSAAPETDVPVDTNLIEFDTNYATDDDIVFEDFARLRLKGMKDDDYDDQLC

[2] = system: CHO-K1 cells overexpressing only GNA11 but not G2A; conditions: control cells without G2A; ONC compounds at ≥ 30 μM
ML-2 cells = experiment: IP-One assay in AML cells; type: cell-based; conditions: 90 minutes stimulation
Molm-13 cells = experiment: IP-One assay in AML cells; type: cell-based; conditions: 90 minutes stimulation
[3] = system: capsaicin-induced TRPV1 responses in mouse primary sensory neurons; experiment: Calcium-imaging-based TRPV1 sensitization assay; type: cell-based
[4] = Metabolic stability in rat liver microsomes; conditions: Sprague–Dawley rat liver microsomes
[5] = Pharmacokinetics in male C57Bl/6N mice
human G2A [6] = target: T1, human G2A (Homo sapiens, UniProt Q9UNW8); conditions: ratio of EC50 values
T1 sequence (Q9UNW8 1-380): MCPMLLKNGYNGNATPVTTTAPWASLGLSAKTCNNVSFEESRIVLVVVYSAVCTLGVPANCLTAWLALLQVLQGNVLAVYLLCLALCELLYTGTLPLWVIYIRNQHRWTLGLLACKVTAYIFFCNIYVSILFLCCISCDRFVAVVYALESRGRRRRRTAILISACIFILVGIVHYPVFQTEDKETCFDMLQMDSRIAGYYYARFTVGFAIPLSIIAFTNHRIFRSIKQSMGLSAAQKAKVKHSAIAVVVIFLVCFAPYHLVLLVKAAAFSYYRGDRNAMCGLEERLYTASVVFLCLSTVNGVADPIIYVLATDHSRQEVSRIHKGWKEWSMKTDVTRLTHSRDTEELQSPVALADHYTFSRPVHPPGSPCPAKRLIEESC

GPR1 = GPR1 (Homo sapiens, UniProt P46091); type: cell-based; conditions: 60 μM, no endogenous ligand applied
Aqueous solubility = conditions: PBS with 1% DMSO, pH 7.4, aqueous solubility, PBS buffer
Molm-13 [7] = experiment: Cell viability; type: cell-based; conditions: 30 μM, 72 h
Molm-13 [8] = experiment: Apoptosis assay AnnexinV/7-AAD; type: cell-based; conditions: 30 μM, 24 h
ML-2 [9] = experiment: Cell viability; type: cell-based; conditions: 30 μM, 72 h
ML-2 [10] = experiment: Apoptosis assay AnnexinV/7-AAD; type: cell-based; conditions: 30 μM, 24 h
G2A = conditions: weak antagonist of G2A; cited from earlier work

GPR1, sequence (P46091 whole entry): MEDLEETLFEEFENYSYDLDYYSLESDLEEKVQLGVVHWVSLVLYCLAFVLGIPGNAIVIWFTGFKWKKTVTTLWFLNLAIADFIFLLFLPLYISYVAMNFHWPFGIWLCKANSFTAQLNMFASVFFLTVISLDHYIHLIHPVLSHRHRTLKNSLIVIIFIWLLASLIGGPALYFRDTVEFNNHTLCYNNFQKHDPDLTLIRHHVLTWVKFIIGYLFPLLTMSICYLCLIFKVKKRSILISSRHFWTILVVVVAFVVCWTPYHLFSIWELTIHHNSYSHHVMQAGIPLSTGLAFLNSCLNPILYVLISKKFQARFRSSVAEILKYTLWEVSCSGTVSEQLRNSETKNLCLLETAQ
GPR1, sequence (P32121 whole entry partner): as the sequence (P32121 whole entry partner, one chain of several) above

CCCCC/C=C\C=C\[C@H](O)CCCCCCCC(=O)O [9(R)-HODE]
βarr2 recruitment response (human G2A [1]): did not result in any observable NanoLuc complementation

CCCCC/C=C\C=C\C(O)CCCCCCCC(=O)O (centres unmarked) [9-HODE]
βarr2 recruitment response (human G2A [1]): unable to stimulate the same degree of β-arrestin recruitment
increase in IP-1 not mediated by the receptor [2]: not been observed
activation of the Gq pathway (IP-1) (ML-2 cells): could not detect any activation of the Gq pathway
activation of the Gq pathway (IP-1) (Molm-13 cells): could not detect any activation of the Gq pathway

O=C(NC(Cc1ccccc1)C(=O)O)c1cccc(OCc2cccnc2)c1 (centres unmarked) [Compound 1]
sensitization of capsaicin-induced TRPV1 responses ([3]; 1 μM compound, 2 min, capsaicin 100 nM 30 s): potently sensitize for capsaicin-induced TRPV1 responses; also recorded: comparable to that observed with 200 nM (±)9-HODE

O=C(N[C@H](Cc1ccccc1)C(=O)O)c1cccc(OCc2cccnc2)c1 [Compound 3, (R)-3-Phenyl-2-(3-(pyridin-3-ylmethoxy)benzamido)propanoic Acid]
rat liver microsomes (remaining after 60 min) [4]: 98% ^c
CL ([5]; 10 mg/kg sc): 140.8 mL/min/kg
behavior and clinical signs after dosing ([5]; iv or sc in PBS): no clinical signs observed
times more active than the (S) distomer 2 (human G2A [6]): more than 30 times
activation of the Gq pathway (IP-1) (ML-2 cells): could not detect any activation of the Gq pathway
activation of the Gq pathway (IP-1) (Molm-13 cells): could not detect any activation of the Gq pathway
partial agonism, share of maximal βarr2 recruitment observed with C9 (GPR1): approximately 50%
solubility (Aqueous solubility): > 3000 µM

COc1ccc(-c2cc(C(=O)N[C@@H](Cc3ccccc3)C(=O)NC3CCCCC3)ccc2O)cc1 [Compound 56, (S)-N-(1-(Cyclohexylamino)-1-oxo-3-phenylpropan-2-yl)-6-hydroxy-4′-methoxy-[1,1′-biphenyl]-3-carboxamide]
effect on TRPV1 sensitization by T-10418 (100 nM) and 9-HODE (400 nM) ([3]; cotreatment with 10 μM antagonist): completely abolished

Cc1ccccc1CN1C(=O)C2=C(CCN(Cc3ccccc3)C2)N2CCN=C12 [ONC201]
viable cells (Molm-13 [7]): strong reduction in viable
induction of apoptosis (Molm-13 [8]): induction of apoptosis could be confirmed
viable cells (ML-2 [9]): strong reduction in viable
induction of apoptosis (ML-2 [10]): induction of apoptosis could be confirmed

O=C1C2=C(CCN(Cc3ccccc3)C2)N2CCN=C2N1Cc1ccc(C(F)(F)F)cc1 [ONC212]
increase in IP-1 not mediated by the receptor [2]: substantial increase in IP-1
activation of the Gq pathway (IP-1) (ML-2 cells): could not detect any activation of the Gq pathway
activation of the Gq pathway (IP-1) (Molm-13 cells): could not detect any activation of the Gq pathway

lysophosphatidylcholine [LPC]
pIC50 (G2A): < 5.00
